Assay results as given in paper PMC9394284, “Discovery of Novel Dual Adenosine A2A and A1 Receptor Antagonists with 1H-Pyrazolo[3,4-d]pyrimidin-6-amine Core Scaffold as Anti-Parkinson’s Disease Agents” (Pharmaceuticals, 2022).

Columns and labels:
[1] = target: T1, hA2A receptors (Homo sapiens, UniProt P29274); test: radioligand binding to human A2A receptors, HEK-293 membranes; settings: average of duplicate experiments
T1 construct: purchased PerkinElmer RBHA2AM
Experimental: The binding affinities of synthesized compounds to human A2A receptors (hA2AR) were measured by assessing competitive binding of ligands to radioligand […] using membrane preparations of human recombinant HEK-293 cells expressing human A2A receptors.
The radioligand-binding assays for adenosine receptors were performed at Eurofins Discovery Services (Panlabs, Taiwan). Briefly, stock solutions of the compounds were prepared in DMSO and further diluted with the incubation buffer to the desired concentration. Final DMSO concentrations in the assay were 1.0%. […] Nonspecific binding was estimated in the presence of 100 μM R(-)-PIA. Membranes were filtered and washed 3 times and the filters were counted to determine specifically bound [^3H]DPCPX. Chemical compounds were screened at 10 μM. […] Nonspecific binding was estimated in the presence of 50.0 μM NECA. […] Nonspecific binding was estimated in the presence of 100 μM NECA. Membranes were filtered and washed 3 times and the filters were counted to determine [^3H]MRS1754 specifically bound. […] Nonspecific binding was estimated in the presence of 1.0 μM IB-MECA.
IC50 values were determined by a nonlinear, least-squares regression analysis using MathIQ^TM (ID Business Solutions Ltd., Guildford, UK). […] The Hill coefficient (nH), which defines the slope of the competitive binding curve, was calculated using MathIQ^TM.

[2] = target: T2, hA1 receptor (Homo sapiens, UniProt P30542); test: radioligand binding to human A1 receptors, CHO-K1 membranes, [3H]DPCPX; settings: average of duplicate experiments
T2 sequence (P30542 1-326): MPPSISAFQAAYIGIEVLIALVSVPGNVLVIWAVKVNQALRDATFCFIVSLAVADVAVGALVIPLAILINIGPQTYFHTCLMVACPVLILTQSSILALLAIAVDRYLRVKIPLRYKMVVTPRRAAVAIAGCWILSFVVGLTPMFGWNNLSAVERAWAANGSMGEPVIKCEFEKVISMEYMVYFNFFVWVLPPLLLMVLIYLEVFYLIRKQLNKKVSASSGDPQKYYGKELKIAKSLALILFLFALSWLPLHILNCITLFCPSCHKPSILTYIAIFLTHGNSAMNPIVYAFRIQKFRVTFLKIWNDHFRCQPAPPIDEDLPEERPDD
Experimental: The radioligand-binding assays for adenosine receptors were performed at Eurofins Discovery Services (Panlabs, Taiwan). Briefly, stock solutions of the compounds were prepared in DMSO and further diluted with the incubation buffer to the desired concentration. Final DMSO concentrations in the assay were 1.0%. For adenosine A1 screening, a 10 μg aliquots of membrane preparations from human recombinant CHO-K1 cells stably expressing A1 receptors (CHO-K1-hA1AR clone3, EPDST, R200510) were incubated with 1 nM [^3H]DPCPX in incubation buffer (20 mM HEPES, pH 7.4, 10 mM MgCl2, 100 mM NaCl 1.40 nM) for 90 min at 25 °C. Nonspecific binding was estimated in the presence of 100 μM R(-)-PIA. Membranes were filtered and washed 3 times and the filters were counted to determine specifically bound [^3H]DPCPX. Chemical compounds were screened at 10 μM. For A2A screening, membrane preparations from human recombinant HEK-293 cells stably expressing A2A receptors (PerkinElmer, RBHA2AM) were incubated with 0.05 μM [^3H]CGS-21680 in incubation buffer (50 mM Tris-HCl, pH 7.4, 10 mM MgCl2, 1 mM EDTA, 2 U/mL Adenosine Deaminase) for 90 min at 25 °C. Nonspecific binding was estimated in the presence of 50.0 μM NECA. Membranes were filtered and washed 3 times and the filters were counted to determine [^3H]CGS-21680 specifically bound. For A2B screening, membrane preparations from human recombinant HEK-293 cells stably expressing A2B receptors (PerkinElmer, ES-013-M) were incubated with 1.6 nM [^3H]MRS1754 in incubation buffer (50 mM Tris-HCl, pH 6.5, 5 mM MgCl2, 1 mM EDTA, 0.01 % Bacitracin) for 90 min at 25 °C. Nonspecific binding was estimated in the presence of 100 μM NECA. Membranes were filtered and washed 3 times and the filters were counted to determine [^3H]MRS1754 specifically bound. For A3 screening, membrane preparations from human recombinant CHO-K1 cells stably expressing A3 receptors (PerkinElmer, ES-012-M) were incubated with 0.5 nM [^125I]AB-MECA in incubation buffer (25 mM HEPES, pH 7.4, 5 mM MgCl2, 1 mM CaCl2, 0.1 % BSA) for 60 min at 25 °C. Nonspecific binding was estimated in the presence of 1.0 μM IB-MECA.
IC50 values were determined by a nonlinear, least-squares regression analysis using MathIQ^TM (ID Business Solutions Ltd., Guildford, UK). Where inhibition constants (Ki) were presented, the Ki values were calculated using Cheng and Prusoff equation [18] using the observed IC50 of the compound, the concentration of radioligand employed in the assay, and the historical values for the KD of the ligand (obtained experimentally at Eurofins Panlabs, Inc.). The Hill coefficient (nH), which defines the slope of the competitive binding curve, was calculated using MathIQ^TM.

[3] = solubility (qualitative); assay type: physicochemical; settings: CF3 next to aniline, difficulties in forming salt

T1 sequence (P29274 whole entry): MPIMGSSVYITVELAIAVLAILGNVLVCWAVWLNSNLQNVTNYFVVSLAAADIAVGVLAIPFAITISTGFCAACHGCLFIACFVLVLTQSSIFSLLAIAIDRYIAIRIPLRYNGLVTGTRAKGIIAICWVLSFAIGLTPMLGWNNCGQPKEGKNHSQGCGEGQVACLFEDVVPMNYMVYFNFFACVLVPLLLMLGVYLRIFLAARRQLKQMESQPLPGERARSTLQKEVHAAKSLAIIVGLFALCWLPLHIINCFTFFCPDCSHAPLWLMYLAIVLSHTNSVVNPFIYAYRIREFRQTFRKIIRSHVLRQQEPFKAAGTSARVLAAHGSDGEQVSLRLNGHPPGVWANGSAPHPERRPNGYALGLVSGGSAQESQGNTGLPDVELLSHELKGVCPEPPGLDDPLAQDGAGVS

SMILES	Ki [1]	Ki [2]	solubility (in words) [3]
N#Cc1cc(-c2nc(N)nc3c2cnn3Cc2ccc(N)cc2)ccn1 [11d, 4-(6-Amino-1-(4-aminobenzyl)-1H-pyrazolo[3,4-d]pyrimidin-4-yl)picolinonitrile]	4720 nM	8530 nM	–
Cc1cc(Cn2ncc3c(-c4cc(C#N)ccn4)nc(N)nc32)ccc1N [11k, 2-(6-Amino-1-(4-amino-3-methylbenzyl)-1H-pyrazolo[3,4-d]pyrimidin-4-yl)isonicotinonitrile]	65 nM	510 nM	–
N#Cc1cc(-c2nc(N)nc3c2cnn3Cc2c(F)cc(N)cc2F)ccn1 [11s, 4-[6-Amino-1-[(4-amino-2,6-difluoro-phenyl)methyl]pyrazolo[3,4-d]pyrimidin-4-yl]pyridine-2-carbonitrile]	4920 nM	–	–
N#Cc1ccnc(-c2nc(N)nc3c2cnn3Cc2ccc(N)cc2F)c1 [11e, 2-(6-Amino-1-(4-amino-2-fluorobenzyl)-1H-pyrazolo[3,4-d]pyrimidin-4-yl)isonicotinonitrile]	120 nM	710 nM	–
N#Cc1cncc(-c2nc(N)nc3c2cnn3Cc2ccc(N)cc2F)c1 [11g, 5-(6-Amino-1-(4-amino-2-fluorobenzyl)-1H-pyrazolo[3,4-d]pyrimidin-4-yl)nicotinonitrile]	2640 nM	32800 nM	–
N#Cc1ccnc(-c2nc(N)nc3c2cnn3Cc2ccc(N)cc2)c1 [11a, 2-(6-Amino-1-(4-aminobenzyl)-1H-pyrazolo[3,4-d]pyrimidin-4-yl)isonicotinonitrile]	310 nM	2470 nM	–
N#Cc1cncc(-c2nc(N)nc3c2cnn3Cc2ccc(N)cc2)c1 [11c, 5-(6-Amino-1-(4-aminobenzyl)-1H-pyrazolo[3,4-d]pyrimidin-4-yl)nicotinonitrile]	4790 nM	32000 nM	–
Cc1cc(Cn2ncc3c(-c4cncc(C#N)c4)nc(N)nc32)ccc1N [11m, 5-(6-Amino-1-(4-amino-3-methylbenzyl)-1H-pyrazolo[3,4-d]pyrimidin-4-yl)nicotinonitrile]	2480 nM	21200 nM	–
Cc1cc(Cn2ncc3c(-c4ccnc(C#N)c4)nc(N)nc32)ccc1N [11n, 4-(6-Amino-1-(4-amino-3-methylbenzyl)-1H-pyrazolo[3,4-d]pyrimidin-4-yl)picolinonitrile]	1150 nM	21300 nM	–
N#Cc1cc(-c2nc(N)nc3c2cnn3Cc2ccc(N)cc2F)ccn1 [11h, 4-(6-Amino-1-(4-amino-2-fluorobenzyl)-1H-pyrazolo[3,4-d]pyrimidin-4-yl)picolinonitrile]	3190 nM	28000 nM	–
CCn1c(=O)c2c(nc(/C=C/c3ccc(OC)c(OC)c3)n2C)n(CC)c1=O [Istradefylline, reference compound]	–	610 nM	–
N#Cc1cncc(-c2nc(N)nc3c2cnn3Cc2c(F)cc(N)cc2F)c1 [11r, 5-[6-Amino-1-[(4-amino-2,6-difluoro-phenyl)methyl]pyrazolo[3,4-d]pyrimidin-4-yl]pyridine-3-carbonitrile]	1220 nM	10000 nM	–

Second part, the molecule after the results:

Ki [1]	Ki [2]	solubility (in words) [3]	SMILES
2.71 nM	33 nM	greatly reduced solubility	N#Cc1cccc(-c2nc(N)nc3c2cnn3Cc2ccc(N)c(C(F)(F)F)c2)c1F [11x, 3-(6-Amino-1-(4-amino-3-(trifluoromethyl)benzyl)-1H-pyrazolo[3,4-d]pyrimidin-4-yl)-2-fluorobenzonitrile]
6.39 nM	180 nM	–	Cc1cc(Cn2ncc3c(-c4cccc(C#N)n4)nc(N)nc32)ccc1N [11l, 6-(6-Amino-1-(4-amino-3-methylbenzyl)-1H-pyrazolo[3,4-d]pyrimidin-4-yl)picolinonitrile]
10.2 nM	250 nM	greatly reduced solubility	N#Cc1ccnc(-c2nc(N)nc3c2cnn3Cc2ccc(N)c(C(F)(F)F)c2)c1 [11v, 2-[6-Amino-1-[[4-amino-3-(trifluoromethyl)phenyl]methyl]pyrazolo[3,4-d]pyrimidin-4-yl]pyridine-4-carbonitrile]
47 nM	380 nM	–	N#Cc1ccnc(-c2nc(N)nc3c2cnn3Cc2c(F)cc(N)cc2F)c1 [11p, 2-[6-Amino-1-[(4-amino-2,6-difluoro-phenyl)methyl]pyrazolo[3,4-d]pyrimidin-4-yl]pyridine-4-carbonitrile]
16.4 nM	63 nM	–	N#Cc1cccc(-c2nc(N)nc3c2cnn3Cc2ccc(N)cc2F)c1F [11j, 3-(6-Amino-1-(4-amino-2-fluorobenzyl)-1H-pyrazolo[3,4-d]pyrimidin-4-yl)-2-fluorobenzonitrile]
6.84 nM	150 nM	–	N#Cc1cccc(-c2nc(N)nc3c2cnn3Cc2c(F)cc(N)cc2F)n1 [11q, 6-[6-Amino-1-[(4-amino-2,6-difluoro-phenyl)methyl]pyrazolo[3,4-d]pyrimidin-4-yl]pyridine-2-carbonitrile]
31 nM	650 nM	–	N#Cc1cccc(-c2nc(N)nc3c2cnn3Cc2ccc(N)cc2)n1 [11b, 6-(6-Amino-1-(4-aminobenzyl)-1H-pyrazolo[3,4-d]pyrimidin-4-yl)picolinonitrile]
6.45 nM	30 nM	–	N#Cc1cccc(-c2nc(N)nc3c2cnn3Cc2c(F)cc(N)cc2F)c1F [11u, 3-(6-Amino-1-(4-amino-2,6-difluorobenzyl)-1H-pyrazolo[3,4-d]pyrimidin-4-yl)-2-fluorobenzonitrile]
19.4 nM	–	–	N#Cc1cccc(-c2nc(N)nc3c2cnn3Cc2ccc(N)cc2)c1F [4b, 3-(6-Amino-1-(4-aminobenzyl)-1H-pyrazolo[3,4-d]pyrimidin-4-yl)-2-fluorobenzonitrile]
16.4 nM	–	–	N#Cc1cccc(-c2nc(N)nc3c2cnn3Cc2ccc(N)cc2)c1 [4a, 3-(6-Amino-1-(4-aminobenzyl)-1H-pyrazolo[3,4-d]pyrimidin-4-yl)benzonitrile]
10.6 nM	160 nM	–	N#Cc1cccc(-c2nc(N)nc3c2cnn3Cc2ccc(N)cc2F)n1 [11f, 6-[6-Amino-1-[(4-amino-2-fluoro-phenyl)methyl]pyrazolo[3,4-d]pyrimidin-4-yl]pyridine-2-carbonitrile]
12.1 nM	160 nM	–	N#Cc1cccc(-c2nc(N)nc3c2cnn3Cc2ccc(N)cc2F)c1 [11i, 3-(6-Amino-1-(4-amino-2-fluorobenzyl)-1H-pyrazolo[3,4-d]pyrimidin-4-yl)benzonitrile]
11.1 nM	110 nM	–	Cc1cc(Cn2ncc3c(-c4cccc(C#N)c4)nc(N)nc32)ccc1N [compound 8, 3-(6-Amino-1-(4-amino-3-methylbenzyl)-1H-pyrazolo[3,4-d]pyrimidin-4-yl)benzonitrile]
7.42 nM	50 nM	–	N#Cc1cccc(-c2nc(N)nc3c2cnn3Cc2c(F)cc(N)cc2F)c1 [11t, 3-[6-Amino-1-[(4-amino-2,6-difluoro-phenyl)methyl]pyrazolo[3,4-d]pyrimidin-4-yl]benzonitrile]
